≈ marks a conversion by molar mass, not a printed value.
Key:
[1] = tested on: Pseudomonas aeruginosa (Pae, PAWT, ATCC #27853); experiment: MIC against Pseudomonas aeruginosa reference strain PAWT; format: cell-based; settings: Pseudomonas aeruginosa wild type PAWT
Text: (§1) For evaluation of efficacy, we assembled panels of representative gram-negative pathogens, including Pseudomonas aeruginosa (Pae, PAWT, ATCC #27853), Klebsiella pneumoniae (Kpn, KPWT, ATCC #700603), Acinetobacter baumannii (Aba, ABWT, ATCC #BAA-747) and Escherichia coli (Eco, ECWT, ATCC #25922). These reference strains are useful indicator organisms to characterize compound activity against bacteria from a pathogenic genus in the absence of multiple resistance mechanisms. Two strains (PAWT and ECWT) are reference strains cited within the Clinical and Laboratory Standards Institute (CLSI) Standards for susceptibility testing by Minimum Inhibitory Concentration (MIC) (SXPS2) and are well suited for quality control. ABWT and ECWT are widely susceptible to aminoglycoside antibiotics, whereas PAWT and KPWT harbor a single aminoglycoside-modifying enzyme (AGME) that targets 4,6-substituted-2-deoxystreptamine AGs. […]

[2] = tested on: Klebsiella pneumoniae (Kpn, KPWT, ATCC #700603); experiment: MIC against Klebsiella pneumoniae reference strain KPWT; format: cell-based
Text: as §1, with “These reference strains are useful indicator organisms to characterize compound activity against bacteria from a pathogenic genus in the absence of multiple resistance mechanisms.” left out

[3] = tested on: Pseudomonas aeruginosa PR1 (clinical isolate with intermediate aminoglycoside resistance); experiment: MIC against Pseudomonas aeruginosa clinical isolate PR1; format: cell-based; settings: Pseudomonas aeruginosa resistant strain PR1
Text: (§2) Pseudomonas aeruginosa is a prominent nosocomial pathogen. In addition to intrinsic antibiotic resistance to several antibiotics, Pseudomonas has acquired multiple additional mechanisms of resistance. As a result, therapeutic options for the treatment of infections caused by Pseudomonas aeruginosa are limited. We acquired clinical isolates of Pseudomonas aeruginosa (Micromyx LLC, Kalamazoo, Mich.), and used this panel to test compounds for Pseudomonicidal activity. […] For each strain and antibiotic, the mechanism(s) of resistance was inferred from the resistance profile. The presence of specific AGMEs was confirmed by colony PCR.

[4] = tested on: Pseudomonas aeruginosa PR2 (clinical isolate with intermediate aminoglycoside resistance); experiment: MIC against Pseudomonas aeruginosa clinical isolate PR2; format: cell-based; settings: Pseudomonas aeruginosa resistant strain PR2
Text: as §2

[5] = tested on: Pseudomonas aeruginosa PR3 (high-level, efflux-mediated, pan-aminoglycoside resistance); experiment: MIC against Pseudomonas aeruginosa clinical isolate PR3; format: cell-based; settings: for MIC PR3: Pseudomonas aeruginosa resistant strain PR3
Text: as §2

[6] = tested on: Klebsiella pneumoniae KR1 (clinical isolate with intermediate aminoglycoside resistance); experiment: MIC against Klebsiella pneumoniae clinical isolate KR1; format: cell-based; settings: Klebsiella pneumonia KR1; in µg/mL
Text: (§3) Klebsiella pneumoniae (Kpn) and Escherichia coli (Eco) are gram-negative (like Pae), enteric pathogens with increasing clinical relevance. Many clinical isolates of Kpn and Eco harbor extended-spectrum beta-lactamases and are no longer sensitive to most beta-lactam antibiotics. We acquired clinical isolates of Klebsiella pneumoniae and Escherichia coli (Micromyx LLC, Kalamazoo, Mich.) and used this panel to test compounds for anti-enteric activity.

[7] = tested on: Klebsiella pneumoniae KR2 (clinical isolate with intermediate aminoglycoside resistance); experiment: MIC against Klebsiella pneumoniae clinical isolate KR2; format: cell-based; settings: Klebsiella pneumonia KR2
Text: as §3

[8] = tested on: Klebsiella pneumoniae KR3 (clinical isolate possessing high-level aminoglycoside resistance); experiment: MIC against Klebsiella pneumoniae clinical isolate KR3; format: cell-based; settings: Klebsiella pneumonia KR3; in µg/mL
Text: as §3

[9] = tested on: Acinetobacter baumannii (Aba, ABWT, ATCC #BAA-747); experiment: MIC against Acinetobacter baumannii reference strain ABWT; format: cell-based
Text: as §1

[10] = tested on: Escherichia coli (Eco, ECWT, ATCC #25922); experiment: MIC against Escherichia coli reference strain ECWT; format: cell-based
Text: For evaluation of efficacy, we assembled panels of representative gram-negative pathogens, including Pseudomonas aeruginosa (Pae, PAWT, ATCC #27853), Klebsiella pneumoniae (Kpn, KPWT, ATCC #700603), Acinetobacter baumannii (Aba, ABWT, ATCC #BAA-747) and Escherichia coli (Eco, ECWT, ATCC #25922). These reference strains are useful indicator organisms to characterize compound activity against bacteria from a pathogenic genus in the absence of multiple resistance mechanisms. Two strains (PAWT and ECWT) are reference strains cited within the Clinical and Laboratory Standards Institute (CLSI) Standards for susceptibility testing by Minimum Inhibitory Concentration (MIC) (SXPS2) and are well suited for quality control. ABWT and ECWT are widely susceptible to aminoglycoside antibiotics, whereas PAWT and KPWT harbor a single aminoglycoside-modifying enzyme (AGME) that targets 4,6-substituted-2-deoxystreptamine AGs.

[11] = tested on: more than fifty resistant contemporary clinical isolates of Pseudomonas aeruginosa; experiment: MIC90 against panel of resistant clinical isolates of Pseudomonas aeruginosa; format: cell-based; settings: Pseudomonas aeruginosa
Text: To assess this, a panel of more than fifty resistant contemporary clinical isolates of Pseudomonas aeruginosa were obtained from multiple sources including JMI Laboratories (North Liberty, Iowa), Pfizer (Groton, Conn.), Micromyx (Kalamazoo, Mich.), Dr. J. Chow (Wayne State University). Strains were characterized for resistance to a wide variety of classes of antibiotics including aminoglycosides, β-lactams and fluoroquinolones. […] This reflects the difficulty in treating clinical Pseudomonas aeruginosa infections. […] Using this stringent panel, we tested a subset of compounds of the invention (Table 4).

[12] = tested on: fifty resistant contemporary clinical isolates of Klebsiella pneumoniae; experiment: MIC90 against panel of resistant clinical isolates of Klebsiella pneumoniae; format: cell-based; settings: Klebsiella pneumoniae; fifty resistant contemporary clinical isolates, reference antibiotics
Text: Using this stringent Klebsiella pneumoniae panel, we tested a subset of compounds of the invention.

P. aeruginosa 6294 MLP-3 = experiment: Rat neutropenic thigh model; format: in vivo
Procedure: The compound identified as SXP 2523 was selected for further testing in vivo. Twenty male Sprague Dawley rats were pre-treated with cyclophosphamide to render them neutropenic on day −4 and day −1 with 100 mg/kg and 75 mg/kg respectively. Rats were infected with P. aeruginosa 6294 MLP-3, via injection into the right thigh muscle of 0.1 mL per rat. Two hours post infection rats were treated intravenously with either SXP-2523 or amikacin in a total dose of 10 or 60 mg/kg, respectively. The test article and control agent were delivered at 2, 4, and 6 hours post infection. Five rats were treated with each drug concentration. One group of five rats was euthanized at initiation of treatment and thigh CFUs were processed (T=Rx). Twenty-four hours post infection rats were euthanized by CO2 inhalation. The right thigh muscles of the rats were aseptically removed, weighed, homogenized, serially diluted, and plated on MacConkey medium. The plates were incubated overnight at 37° C. in 5% CO2. CFU per gram of thigh was calculated by enumerating the plated colonies then adjusting for serial dilutions and the weight of the thigh. The following table 7 summarizes the results Table 6: […]

[13] = tested on: resistant strain of P. aeruginosa (P. aeruginosa 6294 MLP-3); experiment: Rat neutropenic thigh model against resistant P. aeruginosa; format: in vivo; settings: resistant P. aeruginosa
Procedure: The compound identified as SXP 2523 was further tested in vivo against a resistant strain of P. aeruginosa. Twenty male Sprague Dawley rats were rendered neutropenic by treatment with cyclophosphamide on day −4 and day −1 with 100 mg/kg and 75 mg/kg, respectively. Rats were infected with P. aeruginosa 6294 MLP-3, via injection into the right thigh muscle of 0.1 mL per rat. Two hours post infection rats were treated intravenously with either SXP-2523 or amikacin in a total dose of 10 or 60 mg/kg, respectively. The test article and control agent were delivered at 2, 4, and 6 hours post infection. Five rats were treated with each drug concentration. One group of five rats were euthanized at initiation of treatment and thigh CFUs were determined (T=Rx). Twenty-four hours post infection; rats were euthanized by CO2 inhalation. The right thigh muscles of the rats were aseptically removed, weighed, homogenized, serially diluted, and plated on BHI medium. The plates were incubated overnight at 37° C. in 5% CO2. CFU per gram of thigh was calculated by enumerating the plated colonies then adjusting for serial dilutions and the weight of the thigh.

[14] = tested on: Klebsiella pneumoniae screening panel KPWT, KR1, KR2, KR3; experiment: Klebsiella pneumoniae screening panel (KPWT, KR1, KR2, KR3), reference AGs; format: cell-based
Text: as §3

[15] = Log CFU/thigh, total dose 10 mg/kg SXP-2523 or 60 mg/kg amikacin iv
[16] = neutropenic male Sprague Dawley rats, iv at 2, 4, 6 h post infection, total dose 10 mg/kg SXP-2523 or 60 mg/kg amikacin, 24 h post infection
[17] = Klebsiella pneumoniae KPWT, Table 2

Row | Structure (SMILES) | MIC PAWT [1] [µg/mL] | MIC PR1 [3] [µg/mL] | MIC PR2 [4] [µg/mL] | MIC PR3 [5] [µg/mL] | potency against Klebsiella pneumoniae test panel [14] | MIC KPWT [2, 17] [µg/mL] | MIC ABWT [9] [µg/mL] | MIC ECWT [10] [µg/mL] | further results
1 | NCC[C@H](O)C(=O)N[C@@H]1C[C@H](N)[C@@H](O[C@H]2O[C@H](CN)[C@@H](O)[C@H](O)[C@H]2O)[C@@H](F)[C@H]1O[C@H]1O[C@H](CNC2CC2)[C@@H](O)[C@H](N)[C@H]1O [SXP1212-56″-16] | 1 (≈ 1.6 µM) | 2 to 8 | <0.25 to 4 | 32 (≈ 51.1 µM) | – | – | – | – | MIC KPWT ([2]; Klebsiella pneumonia KPWT, Table 5 (unit not given), in µg/mL): <0.25; MIC KR1 [6]: 0.5-1; MIC KR2 [7]: 1; MIC KR3 [8]: 16
2 | NCC[C@H](O)C(=O)N[C@@H]1C[C@H](N)[C@@H](O[C@H]2O[C@H](CN)[C@@H](O)[C@H](O)[C@H]2O)[C@H](O)[C@H]1O[C@H]1O[C@H](CO)[C@@H](O)[C@H](N)[C@H]1O [amikacin] | – | – | – | – | potency against 3 of 4 strains tested | – | – | – | MIC ([1]; ATCC27853): 1 to 2 µg/mL (≈ 1.71 to 3.42 µM); MIC ([2]; ATCC700603, Klebsiella pneumoniae KPWT, Table 2): 1 µg/mL (≈ 1.71 µM); MIC ([9]; ATCCBAA747): 1 µg/mL (≈ 1.71 µM); MIC ([10]; ATCC25922): 2 to 4 µg/mL (≈ 3.42 to 6.83 µM); MIC [3]: 8 µg/mL (≈ 13.7 µM); MIC [4]: 8 to 16 µg/mL (≈ 13.7 to 27.3 µM); MIC ([5]; Pseudomonas aeruginosa, read-out: MIC PR3): 64 µg/mL (≈ 109 µM); MIC90 [11]: ≥ 64 µg/mL; MIC90 [12]: ≥ 64 µg/mL; Change from 24 hr. control (P. aeruginosa 6294 MLP-3; [15]): −1.49; Change from T = Rx controls (P. aeruginosa 6294 MLP-3; [15]): 1.59; Log CFU/thigh (P. aeruginosa 6294 MLP-3; [16]): 5.77 Log CFU/thigh; Change from 24 hr. control [13, 15]: −2.73; Change from T = Rx controls [13, 15]: 0.43; Log CFU/thigh [13, 16]: 3.92 Log CFU/thigh
3 | NC[C@H]1O[C@H](O[C@H]2[C@H](O)[C@@H](O[C@H]3O[C@H](CO)[C@@H](O)[C@H](N)[C@H]3O)[C@H](N)C[C@@H]2N)[C@H](O)[C@@H](O)[C@@H]1O [kanamycin A] | >64 | >64 | >64 | >64 | limited to no activity | 32 (≈ 66 µM) | 1 (≈ 2.06 µM) | 4 (≈ 8.26 µM) | –
4 | NC[C@H]1O[C@H](O[C@H]2[C@H](O)[C@@H](O[C@H]3O[C@H](CO)[C@@H](O)[C@H](N)[C@H]3O)[C@H](N)C[C@@H]2N)[C@H](N)[C@@H](O)[C@@H]1O [kanamycin B] | 16 (≈ 33.1 µM) | 64 (≈ 132 µM) | >64 | >64 | limited to no activity | 16 (≈ 33.1 µM) | 0.5 to 1 | 2 (≈ 4.14 µM) | –
